# Assay results: patent publication US6787525B1, “Glyceryl nucleotides, method for the production thereof and their use” (priority 1998, dated 2004)
# Columns and labels:
# A498 = experiment: In vitro cytostatic effect (SRB): A498, Kidney cancer
# MCF7 = experiment: In vitro cytostatic effect (SRB): MCF7, Breast cancer
# HCC-2998 = experiment: In vitro cytostatic effect (SRB): HCC-2998, Intestinal cancer
# [1] = read-out: LC50, 48-hour incubation
structure (smiles),measurement,setting,value
"CCCCCCCCCCCCCCCCCCOC(COP(=O)(O)OCC1OC(n2cc(F)c(=O)[nH]c2=O)CC1O)COP(=O)(O)OCC1OC(n2ccc(N)nc2=O)C(O)C1O (racemic) [NSC 698688-A/1, arabinocytidylyl-(5′→1)-2-O-octadecyl-rac-glycerylyl-(3→5′)-5-fluoro-2′-deoxyuridine]",GI50,A498; 48-hour incubation,319 nM
same,TGI,A498; 48-hour incubation,>1.00E − 04 mol/l
same,CC50,A498; [1],> 100000 nM
same,GI50,MCF7; 48-hour incubation,170 nM
same,TGI,MCF7; 48-hour incubation,>1.00E − 04 mol/l
same,CC50,MCF7; [1],> 100000 nM
same,GI50,HCC-2998; 48-hour incubation,58.8 nM
same,TGI,HCC-2998; 48-hour incubation,3.50E − 05 mol/l
same,CC50,HCC-2998; [1],> 100000 nM
